Reference: PMC8117417, “Novel Trifluoromethyl Pyrimidinone Compounds With Activity Against Mycobacterium tuberculosis” (Frontiers in Chemistry, 2021)
Values after ≈ are worked out from the molar mass of the structure shown. Values joined by “and” are separate entries in the source; they are usually repeats but may differ in a detail not shown here. Identical values can stand only once.

Experiments:
[1] = tested on: HepG2 human liver cells; assay: Cytotoxicity against HepG2 cells (CellTiter-Glo); type: cell-based; details: Homo sapiens, HepG2, 72 h, concentration required to inhibit growth of HepG2 cells by 50%; 72 h exposure
Description: Cytotoxicity was measured after 72 h of compound exposure at 37°C and 5% CO2 using CellTiter-Glo (Promega).

[2] = tested on: Mycobacterium smegmatis mc^2155; assay: Spectrum: MIC99 on solid medium, agar serial dilution; type: cell-based; set-up: unit not given here; details: minimum concentration required to reduce CFUs by 99%, two independent runs
[3] = tested on: Escherichia coli DH5α; assay: as above; type: cell-based; set-up: unit not given here; details: minimum concentration required to reduce CFUs by 99%, two independent runs
[4] = tested on: Pseudomonas aeruginosa BAA 47; assay: as above; type: cell-based; set-up: unit not given here; details: minimum concentration required to reduce CFUs by 99%, two independent runs
[5] = tested on: K. pneumoniae; assay: as above; type: cell-based; set-up: unit not given here; details: minimum concentration required to reduce CFUs by 99%, two independent runs
Description: Minimum inhibitory concentration to inhibit growth of 99% (MIC99) on solid medium was determined using the agar serial dilution method. Late log phase cultures were plated at ~10^5 colony-forming units (CFU)/mL onto solid medium containing 2-fold serial dilutions of compounds. The MIC99 is defined as the lowest concentration with ≤1% growth.

[6] = tested on: Staphylococcus aureus RN4220; assay: as above; type: cell-based; set-up: unit not given here; details: minimum concentration required to reduce CFUs by 99%, values of two independent runs
[7] = tested on: Bacillus subtilis Marburg; assay: as above; type: cell-based; set-up: unit not given here; details: minimum concentration required to reduce CFUs by 99%, values of two independent runs
[8] = tested on: Saccharomyces cerevisiae Y187; assay: as above; type: cell-based; set-up: unit not given here; details: minimum concentration required to reduce CFUs by 99%, values of two independent runs
[9] = tested on: M. tuberculosis H37Rv; assay: Minimum inhibitory concentration (IC90) against fluorescent M. tuberculosis in liquid culture; details: for IC90: read-out: MTB IC90, concentration required to inhibit M. tuberculosis growth by 90%, aerobic culture, 5 days, 7H9-OADC-Tw

SMILES | IC50 [1] | MIC99 M. smegmatis [2] | MIC99 E. coli [3] | MIC99 P. aeruginosa [4] | MIC99 K. pneumoniae [5] | MIC99 S. aureus [6] | MIC99 B. subtilis [7] | MIC99 S. cerevisiae [8] | melting point | IC90 [9] | MIC ([9]; MTB IC90 assay, Figure 1 primary hits and reference drugs in this assay)
CCc1c(C(F)(F)F)nc(-c2ccccn2)[nH]c1=O [Compound 55, 5-Ethyl-2-(Pyridin-2-yl)-6-(Trifluoromethyl)Pyrimidin-4(3H)-One] | 6.1 ± 1.3 µM | 100 | >100 | >100 | >100 | 6.3 and 5.0 | 6.3 and 5.0 | 3.1 and 5.0 | 122 to 124 °C | 3.7 ± 0.26 µM | –
O=c1[nH]c(-c2ccccn2)nc(C(F)(F)F)c1Cc1ccc(F)cc1 [Compound 5, 5-(4-Fluorobenzyl)-2-(Pyridin-2-yl)-6-(Trifluoromethyl)Pyrimidin-4(3H)-One] | 3.2 ± 1.5 µM | >100 | >100 | >100 | >100 | 1.6, 1.6 | 12.5 and 6.3 | 3.1, 3.1 | 183 to 185 °C | 1.7 ± 0.41 µM | 1.7 ± 0.41 µM (≈ 0.594 µg/mL)
